Source: patent publication US12171744B2, “Pharmaceutical combinations for the treatment of cancer” (Presage Biosciences, Inc., priority 2016, dated 2024)
Entries after “also recorded” stand apart in the source; their conditions may differ.

Assays:
[1] = tested on: NU-DHL-1 diffuse large B-cell lymphoma (DLBCL) cells; test: CIVO microinjection, staining for MCL-1 and cleaved caspase-3; type: in vivo, mice
Description: Mice were enrolled into CIVO drug studies when the tumor volume reached approximately 1000 mm^3. […] A fluorescent tracking marker (FTM) was added to each drug reservoir in vehicle for delivery along with each drug or drug combination. […] Total amounts of agents injected are tabulated below in Table 4.
The cells were stained for cleaved caspase-3 (CC3) (shown in red) as a marker of apoptosis.

[2] = tested on: SUDHL4 model of DLBCL; test: Xenograft tumor growth and Western blot of tumors; type: in vivo, NOD SCID mice
Description: Protein lysates were prepared by adding ice-cold 1×RIPA Buffer (from 10×, Millipore) with 1×-3× Halt protease and phosphatase inhibitor cocktail (100×, Pierce) to cell pellets, followed by pulse sonication (˜3-5 secs) three times. Lysates were cleared by centrifugation at 14K rpm for 15-20 mins and the supernatant (lysate) was collected for further analysis. To prepare lysates from cryopreserved xenograft tumor tissue, tissue was first homogenized using a hand-held tissue homogenizer (Cole Palmer) in above lysis buffer followed by pulse sonication and centrifugation as described above. Above steps were carried out under ice cold conditions. Protein samples were quantified using Bradford assay (Biorad) at 1:10 or higher dilutions using appropriate blank controls with 1×RIPA. […]
Immune deficient NOD SCID mice were implanted with the SUDHL4 model of DLBCL. […] Drug effects were assessed via tumor volume measurements twice weekly by a technician blinded to the treatment of each subject in the study. […]

[3] = tested on: SU-DHL-4 model of DLBCL; test: Western blot of treated cells; type: cell-based
Description: (§1) Cell lines shown in Table 1, adherent or suspension, were treated in 6-well dishes or T10 flasks respectively, seeded at one million per ml density prior to treatment in total volumes of 3-10 ml. All agents used for in vitro cell treatments were formulated in water/DMSO to achieve required concentrations (as stated in respective figure labels/legends) with DMSO concentrations not exceeding 0.01%. Drug sources are indicated in table under ‘CIVO microinjection studies’. Cells were harvested at experimental time points: 2, 6, or 24 hours post treatment as indicated in respective figures, first by washing cells twice in ice-cold PBS in 15 ml falcon tubes, centrifugation at 1000 rpm for 5 mins followed by lysis of the respective cell pellets as described in section below. Note: Drug resistant NUDHL1 Dox 1000 nM and Toledo Dox 1000 nM cell lines were generated at Presage by culturing parental lines in media with stepwise increments in Doxorubicin concentration over several passages. These cells were used to generate xenografts when resistance to 1 uM Dox was achieved.
Protein lysates were prepared by adding ice-cold 1×RIPA Buffer (from 10×, Millipore) with 1×-3× Halt protease and phosphatase inhibitor cocktail (100×, Pierce) to cell pellets, followed by pulse sonication (˜3-5 secs) three times. Lysates were cleared by centrifugation at 14K rpm for 15-20 mins and the supernatant (lysate) was collected for further analysis. To prepare lysates from cryopreserved xenograft tumor tissue, tissue was first homogenized using a hand-held tissue homogenizer (Cole Palmer) in above lysis buffer followed by pulse sonication and centrifugation as described above. Above steps were carried out under ice cold conditions. Protein samples were quantified using Bradford assay (Biorad) at 1:10 or higher dilutions using appropriate blank controls with 1×RIPA. 20-25 micrograms of protein from each sample were subject to SDS-PAGE using BOLT 4-12% Bis-Tris gels (Thermofisher) and transferred to either 0.45 or 0.2 micron pore size membranes (as applicable based on protein molecular size), and either nitrocellulose (NC) or pvdf (Thermofisher) using manufacturer's protocol, blocked for one hour in 5% milk at room temperature, probed with primary antibodies (Table 2) at 4 deg C. overnight and corresponding HRP-conjugated secondary antibodies (Jackson Immunoresearch, 1:10,000-1:20,000 dilutions) for 1 hour at room temperature. Three PBS/0.01% Tween-20 washes (5-10 mins each) were carried out after each antibody incubation. ECL chemiluminescent substrate (Pierce or GE) and autoradiographic film (Thermofisher) was used for detection of protein signals.
Cleaved PARP (cPARP) may be used as a biomarker of apoptosis. […] Cells were exposed to drug for 24 h prior to cell lysis and examination by Western Blot using antibodies specific for the cleaved form of PARP, MCL-1, C-MYC, and Beta actin (as a protein loading control) of FIG. 22A and BCL2 as an additional protein loading control in FIG. 22B.
Cleaved PARP (cPARP) may be used as a biomarker of apoptosis. To assess combination efficacy of the two agents of voruciclib and venetoclax together, low doses of each were examined as single agents or as a combination in the three models of DLBCL. Cells were exposed to drug for 24 h prior to cell lysis and examination by Western Blot using antibodies specific for the cleaved form of PARP and Beta actin (as a protein loading control).
FIG. 33 illustrates that voruciclib-induced apoptosis correlates with repression of MCL-1. Three DLBCL models were used: SUDHL4, RIvA, and U2932. Cleaved PARP (cPARP) may be used as a biomarker of apoptosis.

[4] = tested on: NUDHL/Dox1000 cells; test: CIVO microinjection, CC3 expression; design: species or system mice; details: mouse, in vivo
Description: as §1
(§2) Mice were enrolled into CIVO drug studies when the tumor volume reached approximately 1000 mm^3. […]

[5] = tested on: Toledo/Dox1000 cells; test: CIVO microinjection, CC3 expression; design: species or system mice; details: mouse, in vivo
Description: as §1, §2

[6] = target: T1, CDK6 (Homo sapiens, UniProt Q00534); test: Kinase inhibition profiling (filter binding assay with γ-33P-ATP); type: biochemical
T1 construct: purchased Reaction Biology Corp. (testing facility)
Description: (§3) For each kinase, an IC50 value were calculated from a 10-point concentration curve of the test article and converted to Ki values.

[7] = target: T2, CDK4 (Homo sapiens, UniProt P11802); test: as above; type: biochemical
T2 construct: purchased Reaction Biology Corp. (testing facility)
Description: as §3

[8] = target: T3, CDK1 (Homo sapiens, UniProt P06493); test: as above; type: biochemical
T3 construct: purchased Reaction Biology Corp. (testing facility)
Description: as §3

[9] = 0.15 uM voruciclib, 20 nM venetoclax, 24 h
[10] = increasing concentration of voruciclib, single agent

T2 sequence (P11802 whole entry): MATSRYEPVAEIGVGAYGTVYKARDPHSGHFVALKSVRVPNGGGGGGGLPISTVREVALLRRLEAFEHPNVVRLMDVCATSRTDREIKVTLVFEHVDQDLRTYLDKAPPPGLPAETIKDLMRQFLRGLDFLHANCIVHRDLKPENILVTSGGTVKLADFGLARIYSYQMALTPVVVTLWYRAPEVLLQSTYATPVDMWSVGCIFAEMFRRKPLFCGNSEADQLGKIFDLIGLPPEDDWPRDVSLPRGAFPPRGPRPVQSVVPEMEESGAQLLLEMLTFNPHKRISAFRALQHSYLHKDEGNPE
T2 sequence (P24385 whole entry partner): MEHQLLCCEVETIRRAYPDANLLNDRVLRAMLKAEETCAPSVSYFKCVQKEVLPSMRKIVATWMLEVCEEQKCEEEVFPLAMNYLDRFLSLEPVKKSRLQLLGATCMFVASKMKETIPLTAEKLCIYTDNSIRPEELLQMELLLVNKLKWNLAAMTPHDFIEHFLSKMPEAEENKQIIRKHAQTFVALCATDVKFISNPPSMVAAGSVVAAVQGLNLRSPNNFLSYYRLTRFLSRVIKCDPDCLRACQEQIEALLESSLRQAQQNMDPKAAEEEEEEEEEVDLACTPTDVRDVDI
T3 sequence (P06493 whole entry): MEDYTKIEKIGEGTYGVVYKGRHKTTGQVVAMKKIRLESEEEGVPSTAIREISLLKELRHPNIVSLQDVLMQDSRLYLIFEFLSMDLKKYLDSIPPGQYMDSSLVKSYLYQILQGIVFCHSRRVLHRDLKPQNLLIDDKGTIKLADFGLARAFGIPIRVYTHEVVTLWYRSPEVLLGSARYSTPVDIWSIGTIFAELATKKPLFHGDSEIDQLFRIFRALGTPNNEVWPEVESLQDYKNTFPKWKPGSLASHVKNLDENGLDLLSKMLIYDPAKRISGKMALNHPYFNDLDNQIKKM
T3 sequence (P14635 whole entry partner): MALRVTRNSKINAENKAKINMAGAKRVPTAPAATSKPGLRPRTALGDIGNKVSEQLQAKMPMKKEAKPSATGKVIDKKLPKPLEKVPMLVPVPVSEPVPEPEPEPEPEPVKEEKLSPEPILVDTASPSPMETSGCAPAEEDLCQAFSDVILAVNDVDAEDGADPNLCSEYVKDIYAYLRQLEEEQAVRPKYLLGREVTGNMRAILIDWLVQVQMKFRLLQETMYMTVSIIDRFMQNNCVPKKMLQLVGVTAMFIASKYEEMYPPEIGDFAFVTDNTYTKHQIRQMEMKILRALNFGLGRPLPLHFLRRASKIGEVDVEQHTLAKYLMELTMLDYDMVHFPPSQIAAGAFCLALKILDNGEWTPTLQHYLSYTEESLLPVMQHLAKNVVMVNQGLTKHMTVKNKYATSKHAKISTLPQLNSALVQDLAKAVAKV
T1 sequence (Q00534 whole entry): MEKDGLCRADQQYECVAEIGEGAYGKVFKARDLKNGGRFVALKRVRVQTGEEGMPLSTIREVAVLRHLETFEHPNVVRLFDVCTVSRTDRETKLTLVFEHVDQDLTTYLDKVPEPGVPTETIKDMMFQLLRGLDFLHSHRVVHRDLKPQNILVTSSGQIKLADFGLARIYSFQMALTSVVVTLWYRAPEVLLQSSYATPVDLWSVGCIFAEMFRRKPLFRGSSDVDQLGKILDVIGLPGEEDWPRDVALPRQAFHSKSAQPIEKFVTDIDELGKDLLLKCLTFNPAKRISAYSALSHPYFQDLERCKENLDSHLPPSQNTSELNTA
T1 sequence (P24385 whole entry partner): as the sequence (P24385 whole entry partner) above

potency [6]: single digit
potency [7]: single digit
potency [8]: single digit
Compound: CN1CC[C@@H](c2c(O)cc(O)c3c(=O)cc(-c4ccc(C(F)(F)F)cc4Cl)oc23)[C@@H]1CO (relative stereo) [voruciclib, (+)-trans-2-(2-Chloro-4-trifluoromethylphenyl)-5,7-dihydroxy-8-(2-hydroxymethyl-1-methylpyrrolidin-3-yl)-chromen-4-one]
expression of CC3 (cleaved caspase-3) ([1]; marker of apoptosis): slight increased; also recorded: slight effect
expression of MCL-1 ([1]; staining, versus vehicle): decreased
normalized tumor volume ([2]; Voruciclib 200 mpk, Venetoclax 25 mpk, oral gavage 6 days of the week): increase in tumor volume
p53 ([2]; Western blot of tumors, Day 26, 4 hours post treatment): restores
venetoclax-induced MCL-1 ([3]; 0.15 uM voruciclib with 20 nM venetoclax, 24 h): represses
MCL-1 expression [3, 9]: maintains some efficacy for repressing
apoptosis (cleaved PARP) [3, 9]: neither compound induces apoptosis as a single agent
MCL-1 [3, 10]: suppresses
apoptosis (cPARP) [3, 10]: increases as the concentration of voruciclib increases
MCL1 ([3]; voruciclib 1.5 uM, 24 h, Western blot): suppresses
CC3 expression [4]: slight effect
CC3 expression [5]: slight effect
